In series [1] the test system is colony stimulating activity (CSA) in serum. Nature of the series: Colony stimulating activity (CSA) in serum of cyclophosphamide-treated mice.
Method: 300 mg/kg dose of cyclophosphamide (CY) was intravenously injected into 7-week-old ICR mice. 100 mg/kg dose of L-anserine (Ans) was subcutaneously injected every day from the day on which cyclophosphamide was administered. On the first, third, fifth, seventh and ninth days from the administration of cyclophosphamide (on the third, fifth and seventh day for the group to which Ans was administrated), the mouse serum was taken, and colony stimulating activity (CSA) was measured. For a CSA assay in serum, 50 µl of CSA assay serum was added to a medium comprising 50 µl of bone marrow cells (1.5 × 10^6 cells/ml) aseptically recovered from the femur of a normal female ICR mouse, 200 µl of FCS, 450 µl of 0.6% agar and 300 µl of × 2 DMEM, and the mixture was stirred and cultured in 5% CO2 at 37°C for 10 days, a cell mass comprising at least 30 cells was counted as one colony, and the number of the colonies was defined as the CSA of a serum.
In a further series the test system is IL-3. As to the kind of experiment: IL-3 productivity of spleen cells of cyclophosphamide-treated mice (FDCP-2 cell MTT assay). The conditions noted are these: for productivity of IL-3 by spleen cells: CY 300 mg/kg i.v. alone; for IL-3 productivity of the spleen cells: CY 300 mg/kg i.v. + L-anserine 100 mg/kg every day. Type of series: in vivo, ICR mice. Here is the method:
300 mg/kg dose of cyclophosphamide (CY) was intraveously injected to 7-week old ICR mice. To L-anserine (Ans)-administration group, 100 mg/kg dose of L-anserine was administrated every day from the day on which cyclophosphamide was administrated. On the third, fifth and seventh days from the administration of cyclophosphamide, spleen cells of the mouse were taken and the cells (5 × 10^6 cells/ml) were cultured in a 10% FCS-RPMI 1640 medium supplemented with 2 µg/ml of concanavalin A for 24 hours, and the supernatant was assayed for IL-3. The IL-3 activity was measured by plating 1×10^4 cells/well of IL-3 dependent FDCP-2 cells on a 96 well microtiter plate, adding twofold stepwise-diluted supernatant to the wells, culturing the cells for 24 hours, and measuring a ratio of surviving FDCP-2 cells by MTT assay using 3-(4,5-dimethylthyazol-2yl)-2,5-diphenyl tetrazolium bromide. Using a culture supernatant of WEHI cells as IL-3 standard, a concentration of IL-3 which provides 50% growth per the maximum growth of the cultured FDCP-2 cells was defined as 1 unit, and I L-3 activity of a sample was obtained by calculating a sample dilution ratio which provides 50% of the maximum absorption in the standard curve.

Another series deals with bone marrow cells. As to the kind of experiment: Spontaneous proliferation of bone marrow cells (3H-thymidine uptake) from cyclophosphamide-treated mice. Format: in vivo, ICR mice. The procedure: 300 mg/kg dose of cyclophosphamide (CY) was intraveously injected into 7-week-old ICR mice. […] The number of cells per femur for each mouse was counted, and the bone marrow cells for each test group were plated on a 96-well microplate (2 X 100,000 cells/well), and at the same time 0.5µ Ci/well of ^3H-thymidine was added. The cells were cultured for 5 hours, and radioactivity (C.P.M) was measured with a liquid scintillation counter. An experiment was carried out using 3 animals per group, and the results are shown by mean value ± standard error. Spontaneous proliferation ability of bone marrow cells for each group was shown in the parentheses by percentage by taking spontaneous proliferation of bone marrow cells at 0 day (untreated) as 100%.

The test system of series [2] is erythrocytes. As to the kind of experiment: Prevention of anemia in mice given cyclophosphamide. Format: in vivo, C57BL-mice. The procedure: 7-week old C57BL-mice were intravenously injected with cyclophosphamide (CY) in a dose of 300 mg/kg. L-anserine (Ans) was subcutaneously administered every day in a dose of 100 mg/kg from the day on which cyclophosphamide was administered. After 1, 3, 5, 7 and 9 days from the administration of cyclophosphamide (for L-anserine, after 3, 5 and 7 days), blood samples were taken from the orbital venosus plexus of the mouse, and the number of erythrocyte and the amount of hemoglobin were measured by an automatic hemacytometer. The experiment was carried out using three mice per experimental group, and the results are shown as mean ± standard error.

The test system of a further series is leukocytes. As to the kind of experiment: Leukocyte number recovery in mice given cyclophosphamide. Format: in vivo, C57BL mice. The conditions noted are these: for The number of leukocytes: Ans 100 mg/kg s.c. every day where given, mean ± standard error, 5 animals. The source says: On the seventh, eighth and ninth days from the administration of cyclophosphamide blood samples were taken from the orbital venosus plexus of the mouse, and the number of leukocytes was counted by an automatic hemacytometer.

In another series the test system is mouse bone marrow cells. As to the kind of experiment: Colony Forming Unit in Spleen (CFU-s), transplant method, in X-ray irradiated mice. Type of series: in vivo, C57BL/6 mouse. The conditions noted are these: X-ray 6 Gy, 5 x 10^4 bone marrow cells transplanted, spleen colonies after eight days; L-anserine 100 mg/kg s.c. every day to the seventh day; versus X-ray control group. Here is the method:
Colony Forming Unit in Spleen (CFU-s) of mouse bone marrow cells in mouse radiated with X-ray was carried out using a transplant method. The X-ray radiation was carried out using an MBR-1520 type R X-ray radiation apparatus manufactured by Hitachi Medico. The mice were irradiated with X-rays such that the radiation dose rate was 1.16 Gy/min (150 kV, 20 mA, Filter: 0.5 mm Al + 0.1 mm Cu), and the radiation dose was 6 Gy. 5 × 10^4 bone marrow cells of normal C57BL/6 mouse were injected into a tail vein of a radiated recipient female C57BL/6 mouse. Eight days later, the spleen of the mouse was removed and fixed with Bouin solution, and the number of cell colonies formed on the spleen surface were counted. To the L-anserine-administration group 100 mg/kg dose of L-anserine was subcutaneously administrated every day from the day on which X-ray was radiated to the seventh day, and to the chicken extract-administration group 0.5 ml/head dose of chicken extract containing 2mg/ml of L-anserine was orally administrated every day from the day on which X-ray was radiated to the seventh day.

The test system of series [3] is erythrocytes. As to the kind of experiment: Treatment of anemia in mice irradiated with X-ray. Format: in vivo, C57BL/mice. The settings on record: 4.0 Gy X-ray; L-anserine 100 mg/kg s.c. for 10 days; 14th day from irradiation. Here is the method: 7-week old C57BL/mice were systemically irradiated with 4.0 Gy of X-ray. L-anserine was subcutaneously injected continuously for 10 days from the day on which X-ray was irradiated in a dose of 100 mg/kg. On 14th day from the irradiation of X-ray, blood samples were taken from the orbital venosus plexus of mice, and the number of erythrocytes and amount of hemoglobin were measured by an automatic hemacytometer. The experiment used three mice for one experimental group, and the results are shown as mean ± standard error.

Where [4] appears, read: CY 300 mg/kg i.v. alone, third to seventh days.
[5] abbreviates: CY 300 mg/kg i.v. + L-anserine 100 mg/kg s.c. every day, third day to seventh day.

Consider `O=P1(N(CCCl)CCCl)NCCCO1` (centres unmarked) [CY, cyclophosphamide], for which the “colony stimulating activity (CSA) in serum” value is “the inhibition was compensated by stimulation of CSA” in series [1] (CY 300 mg/kg i.v. alone, after the third day) and “inhibited” in series [1] (CY 300 mg/kg i.v. alone, first day). Also, the “productivity of IL-3 by spleen cells” value in the series on IL-3 (first to third days) was “inhibited”; in the series on IL-3 (on and after the fifth day, versus normal conditions), “increase of IL-3 productivity by two times”. Besides, the “spontaneous proliferation ability of bone marrow cells” value in the series with bone marrow cells (CY 300 mg/kg i.v. alone, fifth day) is “once recovered to the normal level”; in the series on bone marrow cells (CY 300 mg/kg i.v. alone, first to third days), “remarkably inhibited”; in the series with bone marrow cells (CY 300 mg/kg i.v. alone, seventh to ninth days) it was “again decreased”. Further, the amount of hemoglobin entry with erythrocytes [2] (setting [4]) is reported as “decrease, resulting in anemia”. The number of erythrocytes result in the series on erythrocytes [2] (setting [4]) is on record as “decrease, resulting in anemia”. Moreover, the “The number of leukocytes” value in the series on leukocytes (7 days after CY 300 mg/kg i.v.) is given as 32.8 ± 8.0 X 100/µl; with leukocytes (8 days after CY 300 mg/kg i.v.) it was 67.4 ± 8.1 X 100/µl; in the series with leukocytes (9 days after CY 300 mg/kg i.v.), 66.6 ± 7.2 X 100/µl. The number of leukocytes result with leukocytes (CY 300 mg/kg i.v. alone, time course after administration) was “decreased immediately after the administration, and gradually recovered before the seventh to ninth day”.

In the case of `Cn1cncc1C[C@H](NC(=O)CCN)C(=O)O` [L-anserine, β-alanyl-π-methyl-L-histidine], the CFU-s activity entry in the series on mouse bone marrow cells is “significantly higher”. Also, the “colony stimulating activity (CSA) in serum” value is 1.5 times higher than the control group in series [1] (CY 300 mg/kg i.v. + L-anserine 100 mg/kg s.c. every day, third day) and “higher than that of the control” in series [1] (CY 300 mg/kg i.v. + L-anserine 100 mg/kg s.c. every day, third to seventh days, versus CY alone control). Further, the “IL-3 productivity of the spleen cells” value with IL-3 (fifth and seventh days) is on record as 1.5 times higher than the control group; in the series with IL-3 (third to seventh days, versus CY alone control group), “higher than the control group”. The “spontaneous proliferation ability of bone marrow cells” value with bone marrow cells (CY 300 mg/kg i.v. + L-anserine 100 mg/kg s.c. every day, third and seventh days, versus CY alone control group) is reported as “at least two times higher than the control group”; in the series with bone marrow cells (CY 300 mg/kg i.v. + L-anserine 100 mg/kg s.c. every day, third to seventh days, versus CY alone control group) it was “significantly higher than that of the control group”. Also, the “recovery of the concentration of hemoglobin” value in the series with erythrocytes [3] was “promoted”. In addition, the “recovery of the number of erythrocytes” value in the series with erythrocytes [3] is on record as “promoted”. The “decrease of content of hemoglobin” value with erythrocytes [2] (setting [5]) is on record as “inhibited”. Besides, the “decrease of the number of erythrocytes” value in the series with erythrocytes [2] (setting [5]) is given as “inhibited”. Also, the number of leukocytes in the series on leukocytes (CY 300 mg/kg i.v. + L-anserine 100 mg/kg s.c. every day, eighth and ninth days) is reported as ~1.5 times higher than that of the control; in the series with leukocytes (CY 300 mg/kg i.v. + L-anserine 100 mg/kg s.c. every day, seventh to ninth days, versus CY alone control group) it was “higher than that of the control group”.

Values taken from patent EP0710485A1, “use of anserine in the manufacture of a medicament for stimulating hematopoiesis” (SUNTORY LIMITED, priority 1994, dated 1996).
